The source of these data is patent US4959367A, “4-oxo-1,2,3-benzotriazines” (Beecham Group P.L.C., priority 1987, dated 1990).

For the assay, the system named is von Bezold-Jarisch reflex evoked by 5-HT. In words: Antagonism of the von Bezold-Jarisch reflex evoked by 5-HT in the anaesthetised rat. The assay is classed as in vivo. To be noted: male rats, urethane anaesthesia, submaximal 5-HT (usually 6 μg/kg) i.v., heart rate changes; for ED50: Rattus norvegicus, iv, read-out: ED50 (required to reduce the 5HT-evoked response to 50% of the control response). As for the experimental part: Antagonism of the von Bezold-Jarisch reflex
The compounds were evaluated for antagonism of the von Bezold-Jarisch reflex evoked by 5-HT in the anaesthetised rat according to the following method:
Male rats, 250-350 g, were anaesthetised with urethane (1.25 g/kg intraperitoneally) and blood pressure and heart rate recorded as described by Fozard J.R. et al., J. Cardiovasc. Pharmacol. 2, 229-245 (1980). A submaximal dose of 5-HT (usually 6 μg/kg) was given repeatedly by the intravenous route and changes in heart rate quantified. Compounds were given intravenously and the concentration required to reduce the 5HT-evoked response to 50% of the control response (ED50) was then determined.

Broadly, the ED50 is the midpoint of the dose-response relation. On to `CN1[C@@H]2CC[C@H]1C[C@@H](n1nnc3ccc(Cl)cc3c1=O)C2` [Compound E1, (endo)-3-(8-Methyl-8-azabicyclo[3.2.1]oct-3-yl)-6-chloro-3,4-dihydro-4-oxo-1,2,3-benzotriazine], for which the median effective dose (ED50) worked out at 0.012 mg/kg.
On the same count and under the same terms, the value for `CN1[C@@H]2CC[C@H]1C[C@@H](n1nnc3cc([N+](=O)[O-])c(Cl)cc3c1=O)C2` [Compound E3, (endo)-3-(8-Methyl-8-azabicyclo[3.2.1]oct-3-yl)-6-chloro-7-nitro-3,4-dihydro-4-oxo-benzotriazine] was 0.013 mg/kg; that for `CN1[C@@H]2CC[C@H]1C[C@@H](n1nnc3cc(N)c(Cl)cc3c1=O)C2` [Compound E4, (endo)-3-(8-Methyl-8-azabicyclo[3.2.1]oct-3-yl)-7-amino-6-chloro-3,4-dihydro-4-oxo-benzotriazine] was 0.00017 mg/kg.
For the compound `CN1CC2CCC1CC2n1nnc2cc(N)c(Cl)cc2c1=O` (stereo not drawn) [Compound E8, (5β)-3-(2-Methyl-2-azabicyclo[2.2.2]oct-5-yl)-7-amino-6-chloro-3,4-dihydro-4-oxobenzotriazine], the “ED50 (required to reduce the 5HT-evoked response to 50% of the control response)” value (i.v.) turned out to be 0.006 mg/kg.
